In PMC8659034, “Natural Xanthine Oxidase Inhibitor 5-O-Caffeoylshikimic Acid Ameliorates Kidney Injury Caused by Hyperuricemia in Mice” (Molecules, 2021):

Legend:
xanthine oxidase (XOD) [1] = target: T1, xanthine oxidase (XOD) (Bos taurus, UniProt P80457); test: spectrophotometric uric acid formation assay at […] nm, % inhibition at […]; assay type: biochemical; conditions: read-out: % inhibition at 100 μg/mL
T1 construct: gene XDH

xanthine oxidase (XOD) [2] = target: T1, xanthine oxidase (XOD); test: spectrophotometric uric acid formation assay at […] nm; reversibility plots; assay type: biochemical

T1 sequence (P80457 2-1332): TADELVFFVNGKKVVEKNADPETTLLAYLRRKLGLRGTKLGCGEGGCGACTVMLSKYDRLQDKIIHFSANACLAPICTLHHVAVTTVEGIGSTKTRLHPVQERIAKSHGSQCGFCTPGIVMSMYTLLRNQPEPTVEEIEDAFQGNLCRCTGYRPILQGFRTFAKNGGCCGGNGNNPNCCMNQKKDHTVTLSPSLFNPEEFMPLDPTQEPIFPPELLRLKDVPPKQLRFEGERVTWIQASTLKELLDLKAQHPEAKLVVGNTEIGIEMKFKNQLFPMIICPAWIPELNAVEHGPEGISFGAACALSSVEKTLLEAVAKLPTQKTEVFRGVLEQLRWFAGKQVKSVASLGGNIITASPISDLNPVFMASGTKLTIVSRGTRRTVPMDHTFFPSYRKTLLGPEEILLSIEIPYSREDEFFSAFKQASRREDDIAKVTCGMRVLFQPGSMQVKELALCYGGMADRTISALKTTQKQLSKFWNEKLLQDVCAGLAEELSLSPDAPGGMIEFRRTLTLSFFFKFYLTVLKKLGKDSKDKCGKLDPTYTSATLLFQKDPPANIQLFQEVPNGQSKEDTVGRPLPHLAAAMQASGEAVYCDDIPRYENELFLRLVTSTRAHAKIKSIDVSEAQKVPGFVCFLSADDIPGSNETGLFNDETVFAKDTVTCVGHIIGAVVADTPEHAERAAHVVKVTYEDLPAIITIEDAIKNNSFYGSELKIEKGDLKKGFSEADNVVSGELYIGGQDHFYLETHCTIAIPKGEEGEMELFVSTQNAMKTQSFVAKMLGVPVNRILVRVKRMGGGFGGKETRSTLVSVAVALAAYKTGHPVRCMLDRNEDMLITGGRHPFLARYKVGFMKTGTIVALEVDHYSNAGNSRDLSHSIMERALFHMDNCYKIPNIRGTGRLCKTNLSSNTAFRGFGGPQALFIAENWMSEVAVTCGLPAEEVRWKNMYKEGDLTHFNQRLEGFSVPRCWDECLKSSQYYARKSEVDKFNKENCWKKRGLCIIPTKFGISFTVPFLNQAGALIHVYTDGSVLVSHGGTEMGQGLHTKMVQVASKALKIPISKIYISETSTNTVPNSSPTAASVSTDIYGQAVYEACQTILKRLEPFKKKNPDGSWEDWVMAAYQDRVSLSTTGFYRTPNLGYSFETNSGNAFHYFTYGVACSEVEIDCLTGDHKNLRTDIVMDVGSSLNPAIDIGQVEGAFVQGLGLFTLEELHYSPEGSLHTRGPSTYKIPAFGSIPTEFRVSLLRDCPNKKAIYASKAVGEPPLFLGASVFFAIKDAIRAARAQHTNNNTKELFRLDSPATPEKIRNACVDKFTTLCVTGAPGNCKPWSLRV

Structure (SMILES)	inhibition at 100 µg/mL (xanthine oxidase (XOD) [1]) [%]	IC50 (xanthine oxidase (XOD) [2]) [µM]
C[C@@H]1O[C@@H](O[C@H]2C(=O)c3c(O)cc(O)cc3O[C@@H]2c2ccc(O)c(O)c2)[C@H](O)[C@H](O)[C@H]1O [compound 6, astilbin]	33.2	–
O=C(/C=C/c1ccc(O)c(O)c1)O[C@@H]1CC(C(=O)O)=C[C@@H](O)[C@H]1O [compound 1, 5-O-caffeoylshikimic acid]	–	14
O=c1c(O)c(-c2ccc(O)c(O)c2)oc2cc(O)cc(O)c12 [compound 3, quercetin]	82.1	–
